Measured values: PubChem BioAssay AID248 (DTP/NCI, 2004)
Values joined by “and” are separate entries in the source; they are usually repeats but may differ in a detail not shown here. Equal entries are not always repeated. Inconclusive results and toxic doses are left out.

Tested on: L1210 leukemia ip in BDF1 mice, survival T/C
Test: NCI In Vivo Anticancer Drug Screen. Data for tumor model L1210 Leukemia (intraperitoneal) in B6D2F1 (BDF1) mice
Conditions: endpoint: mean survival time, higher = longer survival
Outline: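 Mice bearing the transplanted tumor received compound or vehicle. Survival of the treated group was divided by that of the vehicle-treated control group to give the ratio.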

[1] = dose: 100.0 mg/kg/injection, schedule: Q04DX002 (ip), vehicle: saline
[2] = dose: 200.0 mg/kg/injection, schedule: Q04DX002 (ip), vehicle: saline
[3] = dose: 400.0 mg/kg/injection, schedule: Q04DX002 (ip), vehicle: saline
[4] = dose: 100.0 mg/kg/injection, schedule: Q01DX009 (ip), vehicle: Klucel (hydroxypropylcellulose) (HPC)
[5] = dose: 200.0 mg/kg/injection, schedule: Q01DX009 (ip), vehicle: Klucel (hydroxypropylcellulose) (HPC)
[6] = dose: 100.0 mg/kg/injection, schedule: Q01DX001 (ip), vehicle: saline
[7] = dose: 200.0 mg/kg/injection, schedule: Q01DX001 (ip), vehicle: saline
[8] = dose: 25.0 mg/kg/injection, schedule: Q01DX009 (ip), vehicle: saline
[9] = dose: 100.0 mg/kg/injection, schedule: Q01DX009 (ip), vehicle: saline
[10] = dose: 100.0 mg/kg/injection, schedule: Q04DX003 (ip), vehicle: saline
[11] = dose: 200.0 mg/kg/injection, schedule: Q04DX003 (ip), vehicle: saline
[12] = dose: 100.0 mg/kg/injection, schedule: Q04DX003 (ip), vehicle: saline with Tween-80
[13] = dose: 200.0 mg/kg/injection, schedule: Q04DX003 (ip), vehicle: saline with Tween-80
[14] = dose: 400.0 mg/kg/injection, schedule: Q04DX003 (ip), vehicle: saline with Tween-80
[15] = dose: 400.0 mg/kg/injection, schedule: Q01DX001 (ip), vehicle: saline
[16] = dose: 25.0 mg/kg/injection, schedule: Q04DX003 (ip), vehicle: saline
[17] = dose: 50.0 mg/kg/injection, schedule: Q04DX003 (ip), vehicle: saline
[18] = dose: 100.0 mg/kg/injection, schedule: Q04DX003 (ip), vehicle: Klucel (hydroxypropylcellulose) (HPC)
[19] = dose: 200.0 mg/kg/injection, schedule: Q04DX003 (ip), vehicle: Klucel (hydroxypropylcellulose) (HPC)
[20] = dose: 400.0 mg/kg/injection, schedule: Q04DX003 (ip), vehicle: Klucel (hydroxypropylcellulose) (HPC)

With `O=C(OC1c2ccccc2-c2ccccc21)c1cc([N+](=O)[O-])cc([N+](=O)[O-])c1` the T/C [1] was 97 % of control, the T/C [2] was 97 % of control and the T/C [3] was 90 % of control.
For `CC(C)C1=CC23CCC4C(C)(C(=O)O)CCCC4(C)C2CC13` (stereo not given), the T/C (dose: 100.0 mg/kg/injection, schedule: Q01DX009 (ip), vehicle: saline with Tween-80) was 88 % of control, the T/C (dose: 200.0 mg/kg/injection, schedule: Q01DX009 (ip), vehicle: saline with Tween-80) was 90 % of control and the T/C (dose: 400.0 mg/kg/injection, schedule: Q01DX009 (ip), vehicle: saline with Tween-80) was 91 % of control.
In the case of `O=c1[nH]c2cscc2c(=O)n1OS(=O)(=O)c1ccccc1`, the T/C [4] is reported as 93 % of control, the T/C [5] is reported as 95 % of control and the T/C (dose: 400.0 mg/kg/injection, schedule: Q01DX009 (ip), vehicle: Klucel (hydroxypropylcellulose) (HPC)) is reported as 100 % of control.
In the case of `OC(CCN1CCCCC1)(c1cccs1)C(O)(CCN1CCCCC1)c1cccs1` (stereo not given), the T/C [6] is reported as 97 % of control and the T/C [7] is reported as 90 % of control.
With `Cn1c2ccccc2c2nnc(SCCN3CCOCC3)nc21` the T/C (dose: 100.0 mg/kg/injection, schedule: Q04DX002 (ip), vehicle: saline with Tween-80) was 97 % of control, the T/C (dose: 200.0 mg/kg/injection, schedule: Q04DX002 (ip), vehicle: saline with Tween-80) was 93 % of control and the T/C (dose: 400.0 mg/kg/injection, schedule: Q04DX002 (ip), vehicle: saline with Tween-80) was 101 % of control.
`Cc1ccc(C)c(CCC(C)CCCC(C)C)c1` (stereo not given) was tested, and the T/C [6] was 97 % of control and the T/C [7] was 104 % of control.
`O=[N+]([O-])c1cc([N+](=O)[O-])cc(S(=O)(=O)O)c1` was tested, and the T/C [8] was 106 % of control, the T/C (dose: 50.0 mg/kg/injection, schedule: Q01DX009 (ip), vehicle: saline) was 105 % of control and the T/C [9] was 100 % of control and 111 % of control. The T/C [10] was 105 % of control and the T/C [11] was 105 % of control.
`COC(=O)C(COS(=O)(=O)c1ccccc1)NC(=O)OCc1ccccc1` (stereo not given) was tested, and the T/C [9] was 100 % of control, the T/C [10] was 92 % of control and the T/C (dose: 200.0 mg/kg/injection, schedule: Q01DX009 (ip), vehicle: saline) was 98 % of control. For the same molecule, the T/C [11] was 97 % of control, the T/C (dose: 400.0 mg/kg/injection, schedule: Q01DX009 (ip), vehicle: saline) was 96 % of control and the T/C (dose: 400.0 mg/kg/injection, schedule: Q04DX003 (ip), vehicle: saline) was 95 % of control.
`O=C(O)CC1CCC(CC(=O)O)CC1` (stereo not given) was tested, and the T/C [12] was 92 % of control, the T/C [13] was 89 % of control and the T/C [14] was 94 % of control.
For `CCCCCCCCCCCCCCCC(=O)OC(C)CCC1CCCO1` (stereo not given), the T/C [6] was 90 % of control, the T/C [7] was 95 % of control and the T/C [15] was 90 % of control.
For `NC(=O)c1c(Br)n(C2OC(CO)C(O)C2O)c2ncnc(N)c12` (stereo not given), the T/C (dose: 50.0 mg/kg/injection, schedule: Q04DX003 (ip), vehicle: saline with Tween-80) was 102 % of control, the T/C [6] was 121 % of control and the T/C (dose: 178.0 mg/kg/injection, schedule: Q01DX001 (ip), vehicle: saline) was 111 % of control. The T/C (dose: 267.0 mg/kg/injection, schedule: Q01DX001 (ip), vehicle: saline) was 109 % of control, the T/C [15] was 120 % of control and the T/C [14] was 150 % of control.
In the case of `CC12CCC(O)(CC1)CC2(O)c1ccccc1` (stereo not given), the T/C [1] is reported as 102 % of control, the T/C [2] is reported as 95 % of control and the T/C [3] is reported as 98 % of control.
`CCOC(=O)n1[nH][nH]c2c(c(=O)n(C)c(=O)n2C)n1C(=O)OCC` was tested, and the T/C (dose: 75.0 mg/kg/injection, schedule: Q04DX003 (ip), vehicle: saline) was 95 % of control, the T/C (dose: 150.0 mg/kg/injection, schedule: Q04DX003 (ip), vehicle: saline) was 95 % of control and the T/C (dose: 300.0 mg/kg/injection, schedule: Q04DX003 (ip), vehicle: saline) was 94 % of control.
For `C(=N/N(Cc1ccccc1)Cc1ccccc1)/c1ccccc1`, the T/C [6] was 94 % of control, the T/C [7] was 103 % of control and the T/C [15] was 101 % of control.
With `CC(=O)NCCOc1ccc([N+](=O)[O-])cc1Cl` the T/C (dose: 100.0 mg/kg/injection, schedule: Q01DX001 (ip), vehicle: Klucel (hydroxypropylcellulose) (HPC)) was 100 % of control and the T/C (dose: 200.0 mg/kg/injection, schedule: Q01DX001 (ip), vehicle: Klucel (hydroxypropylcellulose) (HPC)) was 110 % of control.
In the case of `CN1C2CCC1CC(OC(c1ccccc1)c1ccccc1)C2` (stereo not given), the T/C (dose: 3.12 mg/kg/injection, schedule: Q01DX009 (ip), vehicle: saline) is reported as 95 % of control, the T/C (dose: 5.0 mg/kg/injection, schedule: Q01DX009 (ip), vehicle: saline) is reported as 92 % of control and the T/C (dose: 6.25 mg/kg/injection, schedule: Q01DX009 (ip), vehicle: saline) is reported as 97 % of control. The T/C (dose: 10.0 mg/kg/injection, schedule: Q01DX009 (ip), vehicle: saline) was 103 % of control, the T/C (dose: 12.5 mg/kg/injection, schedule: Q01DX009 (ip), vehicle: saline) was 103 % of control and the T/C (dose: 17.0 mg/kg/injection, schedule: Q01DX009 (ip), vehicle: saline) was 95 % of control. The T/C (dose: 20.0 mg/kg/injection, schedule: Q01DX009 (ip), vehicle: saline) was 90 % of control, the T/C [8] was 109 % of control and the T/C (dose: 55.0 mg/kg/injection, schedule: Q01DX001 (ip), vehicle: saline) was 98 % of control.
In the case of `CCCCCC=C(c1ccccc1)c1ccccc1`, the T/C (dose: 100.0 mg/kg/injection, schedule: Q01DX001 (ip), vehicle: saline with Tween-80) is reported as 92 % of control, the T/C (dose: 200.0 mg/kg/injection, schedule: Q01DX001 (ip), vehicle: saline with Tween-80) is reported as 104 % of control and the T/C (dose: 400.0 mg/kg/injection, schedule: Q01DX001 (ip), vehicle: saline with Tween-80) is reported as 95 % of control.
With `CC1(C)CC[N+]1(C)C` the T/C (dose: 11.0 mg/kg/injection, schedule: Q04DX003 (ip), vehicle: saline) was 98 % of control and 104 % of control, the T/C (dose: 12.0 mg/kg/injection, schedule: Q04DX003 (ip), vehicle: saline) was 96 % of control and the T/C (dose: 16.0 mg/kg/injection, schedule: Q04DX003 (ip), vehicle: saline) was 94 % of control and 107 % of control. The T/C [16] was 94 % of control and 104 % of control, the T/C (dose: 40.0 mg/kg/injection, schedule: Q04DX003 (ip), vehicle: saline) was 102 % of control and the T/C [17] was 110 % of control. For the same molecule, the T/C (dose: 60.0 mg/kg/injection, schedule: Q04DX003 (ip), vehicle: saline) was 92 % of control.
`C/C=C/Cn1cnc2c1c(=O)n(C)c(=O)n2C` was tested, and the T/C [12] was 95 % of control and the T/C [13] was 95 % of control.
In the case of `COc1cc2c(cc1OC)C1=C(CC2)C2CCCN2CC1` (stereo not given), the T/C (dose: 6.25 mg/kg/injection, schedule: Q04DX003 (ip), vehicle: saline) is reported as 100 % of control, the T/C (dose: 12.5 mg/kg/injection, schedule: Q04DX003 (ip), vehicle: saline) is reported as 97 % of control and the T/C [16] is reported as 94 % of control and 105 % of control. The T/C [17] was 102 % of control.
For `CN(C)CCCN1CC2C3CCCCC3=C3CCCCC3C2C1` (stereo not given), the T/C (dose: 50.0 mg/kg/injection, schedule: Q01DX001 (ip), vehicle: saline) was 98 % of control.
With `CCCCC1C/C=C/C=C/C=C/C=C/C(OC2OC(C)C(O)C(N)C2O)CC2OC(O)(CC(O)CC3OC3/C=C/C(=O)O1)CC(O)C2C(=O)O` (stereo not given) the T/C [18] was 96 % of control, the T/C [19] was 98 % of control and the T/C [20] was 107 % of control.
In the case of `CN1CCN(Cc2cc(Cl)c3cccnc3c2O)CC1`, the T/C (dose: 75.0 mg/kg/injection, schedule: Q01DX001 (ip), vehicle: saline) is reported as 100 % of control and the T/C (dose: 150.0 mg/kg/injection, schedule: Q01DX001 (ip), vehicle: saline) is reported as 106 % of control.
In the case of `COc1ccc(N2C(=O)OC3(CCN(CCCC(=O)c4ccccc4)CC3)C2=O)cc1`, the T/C [18] is reported as 101 % of control, the T/C [19] is reported as 98 % of control and the T/C [20] is reported as 92 % of control.
In the case of `O=C1c2c(c(-c3ccccc3)c3ccccc3c2-c2ccccc2)C(=O)C2C(c3ccccc3)c3ccccc3C(c3ccccc3)C12` (stereo not given), the T/C (dose: 100.0 mg/kg/injection, schedule: Q04DX002 (ip), vehicle: Klucel (hydroxypropylcellulose) (HPC)) is reported as 113 % of control, the T/C (dose: 200.0 mg/kg/injection, schedule: Q04DX002 (ip), vehicle: Klucel (hydroxypropylcellulose) (HPC)) is reported as 106 % of control and the T/C (dose: 400.0 mg/kg/injection, schedule: Q04DX002 (ip), vehicle: Klucel (hydroxypropylcellulose) (HPC)) is reported as 98 % of control.
For `Cc1ccc([PH+](c2ccc(C)cc2)c2ccc(C)cc2)cc1.Cc1ccc([PH+](c2ccc(C)cc2)c2ccc(C)cc2)cc1.[Cl][Hg][Cl]`, the T/C (dose: 50.0 mg/kg/injection, schedule: Q01DX009 (ip), vehicle: Klucel (hydroxypropylcellulose) (HPC)) was 86 % of control, the T/C [4] was 91 % of control and the T/C [5] was 86 % of control.
